Key:
RORγt [1] = molecular target: T1, RORγt (Homo sapiens, UniProt P51449); test: FRET coactivator-peptide recruitment assay with human RORγt-LBD (inverse agonist, max. -[…]); assay type: binding
T1 construct: gene RORC; RORγt-LBD

RORγt [2] = molecular target: T1, RORγt; test: FRET coactivator-peptide recruitment assay with human RORγt-LBD (agonist, max. act. […]); assay type: binding

T1 sequence (Q15788 2-1441): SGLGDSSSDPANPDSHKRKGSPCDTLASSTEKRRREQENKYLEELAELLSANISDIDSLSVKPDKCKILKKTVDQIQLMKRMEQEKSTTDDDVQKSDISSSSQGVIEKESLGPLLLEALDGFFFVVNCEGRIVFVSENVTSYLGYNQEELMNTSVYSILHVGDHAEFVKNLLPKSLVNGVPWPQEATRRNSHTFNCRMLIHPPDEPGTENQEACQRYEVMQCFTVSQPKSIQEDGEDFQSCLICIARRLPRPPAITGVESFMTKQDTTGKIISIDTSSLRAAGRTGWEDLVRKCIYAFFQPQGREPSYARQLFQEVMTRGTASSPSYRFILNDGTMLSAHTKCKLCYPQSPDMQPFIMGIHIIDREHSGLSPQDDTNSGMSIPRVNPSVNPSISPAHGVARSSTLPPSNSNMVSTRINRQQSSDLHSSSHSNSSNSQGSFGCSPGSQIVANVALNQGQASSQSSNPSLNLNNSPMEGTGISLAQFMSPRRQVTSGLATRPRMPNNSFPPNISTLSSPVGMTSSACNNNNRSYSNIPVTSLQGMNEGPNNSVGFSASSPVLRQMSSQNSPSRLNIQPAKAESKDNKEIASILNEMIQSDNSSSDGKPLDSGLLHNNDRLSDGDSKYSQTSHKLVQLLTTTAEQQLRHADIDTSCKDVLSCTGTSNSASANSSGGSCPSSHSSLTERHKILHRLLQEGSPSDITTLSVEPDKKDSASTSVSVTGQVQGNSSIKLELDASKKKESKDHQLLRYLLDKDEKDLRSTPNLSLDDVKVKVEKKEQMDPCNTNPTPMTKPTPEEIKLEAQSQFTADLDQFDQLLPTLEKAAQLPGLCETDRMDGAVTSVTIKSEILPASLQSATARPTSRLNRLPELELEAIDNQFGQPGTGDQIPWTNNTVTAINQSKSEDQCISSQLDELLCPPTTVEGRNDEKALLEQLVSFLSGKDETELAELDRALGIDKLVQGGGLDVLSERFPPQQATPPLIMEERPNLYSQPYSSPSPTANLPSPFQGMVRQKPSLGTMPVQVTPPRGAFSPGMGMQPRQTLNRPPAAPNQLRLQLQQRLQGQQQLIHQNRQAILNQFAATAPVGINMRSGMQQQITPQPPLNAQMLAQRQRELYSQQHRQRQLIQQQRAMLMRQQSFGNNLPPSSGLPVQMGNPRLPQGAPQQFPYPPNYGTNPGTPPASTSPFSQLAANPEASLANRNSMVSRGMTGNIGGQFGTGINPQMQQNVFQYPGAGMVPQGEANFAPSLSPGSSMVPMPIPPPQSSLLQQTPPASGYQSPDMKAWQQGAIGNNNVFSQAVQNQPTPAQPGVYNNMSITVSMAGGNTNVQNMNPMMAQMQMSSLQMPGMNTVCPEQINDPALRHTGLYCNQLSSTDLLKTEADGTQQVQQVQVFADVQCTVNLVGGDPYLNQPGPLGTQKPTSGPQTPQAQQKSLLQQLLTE
T1 sequence (P51449 265-507): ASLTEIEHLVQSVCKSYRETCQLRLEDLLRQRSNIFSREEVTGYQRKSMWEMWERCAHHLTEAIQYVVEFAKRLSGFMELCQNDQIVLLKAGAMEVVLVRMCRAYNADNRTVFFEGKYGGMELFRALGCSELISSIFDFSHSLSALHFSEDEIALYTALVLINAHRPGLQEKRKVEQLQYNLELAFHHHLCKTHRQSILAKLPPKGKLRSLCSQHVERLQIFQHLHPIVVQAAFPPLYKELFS

Compound	IC50 (RORγt [1])	EC50 (RORγt [2])
CC(=O)N1CCN(c2ccc(N(C3CCC3)S(=O)(=O)Cc3ccccc3)cc2)CC1 [GT]	53 nM	
CC(=O)N1CCN(c2ccc3c(c2)CCCN3S(=O)(=O)c2ccccc2)CC1 [compound 1, agonist 1]		3.7 µM
